# Assays:
# SW480 cells = assay: Antiproliferative activity, SW480 colon carcinoma cell line (MTT); assay type: cell-based; conditions: Homo sapiens, 168 h, MTT at day 7 post-drug addition, values marked * (Compounds A, B, C) are an average of two separate experiments
# Description: (§1) The epithelial breast carcinoma cell line, MDA-MB435 and the colon carcinoma cell line, SW480, were purchased from ATCC (American Type Culture Collection) and were grown in culture in medium as recommended by ATCC. For analysis of the effect of various compounds on growth of these cells, the cells were plated at a concentration of 1500 cells/well in a 96 well tissue culture plate ("test plate"). The day after the cells were plated, the compounds to be analyzed were dissolved in 100% DMSO (dimethyl sulfoxide) to yield a 10 mM stock solution. Each compound was diluted in H2 O to 1 mM and was added to triplicate wells in the first row of a 96 well master plate which contains medium to yield a final concentration of 40 μM. The compounds were then serially diluted in medium in the "master plate". The diluted compound(s) were then transferred to test plates containing cells. A row of vehicle "control cells" received DMSO. The final concentration of DMSO in each well was 0.1%. At day 5 post-drug addition, the plate containing MDA-MB435 cells were analyzed as follows. Plates containing SW480 cells were analyzed at day 7 post-drug addition as follows.
# (§2) MTT ([3-(4,5-dimethylthiazole-2-yl)-2,5-diphenyl-2H-tetrazolium bromide]; thiazolyl blue) was added to each well to yield a final concentration of 1 mg/ml. The plate was then incubated at 37° C. for 21/2-3 hours. The MTT containing medium was then removed and 50 μl of 100% ethanol was added to each well to dissolve the formazan. The absorbences were then read using an automated plate reader (Bio-tek microplate reader). IC50 's were calculated using the Reed and Munsch equation, see, Am. J. Hygiene Vol. 27 pgs. 493-497, 1938.
# MDA-MB435 cells = assay: Antiproliferative activity, MDA-MB435 epithelial breast carcinoma cell line (MTT); assay type: cell-based; conditions: Homo sapiens, MDA-MB-435, 120 h, MTT at day 5 post-drug addition, values marked * (Compounds A, B, D) are an average of two separate experiments, read-out: Antiproliferative Activity, MDAMB435 IC50
# Description: as §1, §2
IC50 (SW480 cells),IC50 (MDA-MB435 cells),SMILES
29 nM,33 nM,"Cc1ccc2c(C3=C(c4cn(C)c5ccccc45)C(=O)NC3=O)cn(C)c2c1 [Compound A, 3-(1,6-dimethyl-1H-indol-3-yl)-4-(1-methyl-1H-indol-3yl)-pyrrole-2,5-dione]"
70 nM,45 nM,"CSc1ccc2c(C3=C(c4cn(C)c5ccccc45)C(=O)NC3=O)cn(C)c2c1 [Compound B, 3-(6-methylsulfanyl-1-methyl-1H-indol-3-yl)-4-(1-methyl-1H-indol-3-yl)-pyrrole-2,5-dione]"
70 nM,30 nM,"Cn1cc(C2=C(c3cn(C)c4cc(O)ccc34)C(=O)NC2=O)c2ccccc21 [Compound C, 3-(6-hydroxy-1-methyl-1H-indol-3-yl)-4-(1-methyl-1H-indol-3-yl)-pyrrole-2,5-dione]"
–,80 nM,"CCc1ccc2c(C3=C(c4cn(C)c5ccccc45)C(=O)NC3=O)cn(C)c2c1 [Compound D, 3-(6-ethyl-1-methyl-1H-indol-3-yl)-4-(1-methyl-1H-indol-3-yl)-pyrrole-2,5-dione]"
–,200 nM,"Cn1cc(C2=C(c3cn(C)c4cc(CC#N)ccc34)C(=O)NC2=O)c2ccccc21 [Compound E, {1-methyl-3-[4-(1-methyl-1H-indol-3-yl)-2,5-dioxo-2,5-dihydro-1H-pyrrol-3-yl]-1H-indol-6-yl}-acetonitrile]"

# Source: patent publication US5891901A, “Substituted pyrroles” (Hoffmann-La Roche Inc., priority 1997, dated 1999)
